Results from paper PMC10792649 (Current Research in Microbial Sciences, 2023).

Molecular target: OROV endonuclease (N-terminal endonuclease domain of OROV RNA-polymerase) (Oropouche virus, UniProt A0A0B5CUJ1)
Experiment: fluorescence assay, cleavage of labelled DNA FAM-TCTCTAGCAGTGGCGCC-TAM
Assay type: biochemical

COc1cc2[nH]c3c(OC)c(OC)ccc3c(=O)c2c(OC)c1OC [FAC21, 1,2,3,5,6-Pentamethoxy-9-(10H)-acridinone]
IC50: 1400 ± 300 nM
